Read-outs that look alike come from different tables or passages of the source.

The subject of series [1] is laser induced CNV. Briefly: Inhibition of laser induced CNV by periocular rapamycin (Example 1). The settings on record: mice; daily periocular injections of 5 micrograms in corn oil, begun two days before laser rupture; two weeks after laser; SD 0.00197. It is filed as in vivo. Here is the method: (§1) CNV may be induced by rupturing Bruch's membrane with laser. Fifteen mice were given daily periocular injections of 5 micrograms of rapamycin in corn oil vehicle in one eye. After two days of treatment, Bruch's membrane was ruptured by laser at three sites in each eye. The fellow eye served as control and was treated with periocular injections of corn oil only. Two weeks after laser rupture, 10 mice were perfused with fluorescein-labeled dextran and CNV areas were measured in each eye on choroidal flat mounts. The remaining mice had retinas and RPE/choroid dissected and stored at −70° C. for tissue therapeutic agents level measurement.

The nature of series [2]: Retinal tissue and blood levels of rapamycin after periocular injection (HPLC/MS). The settings on record: mice. The class given is in vivo. Here is the method: as §1
Series [3] deals with laser induced CNV. Briefly: Reversal of laser induced CNV by periocular rapamycin (Example 2). The class given is in vivo. The conditions noted are these: mice; daily periocular 5 μg in 5 μl corn oil started one week after laser, for one week; SD 0.0053. On the procedure:
Fifteen mice had Bruch's membrane ruptured with laser photocoagulation at 3 locations in each eye. After one week, 5 mice were perfused with fluorescein-labeled dextran and the baseline area of CNV was measured in each eye. At that point, the remaining mice were started on daily periocular injections of 5 μl of corn oil containing 5 μg of rapamycin in one eye and corn oil alone in the fellow eye. After one more week, the mice were perfused with fluorescein-labeled dextran and CNV areas were measured in each eye on choroidal flat mounts. The corn oil solution used is approximately a saturated solution. It is expected that lower doses will be used to deliver therapeutically effective amounts of rapamycin.
Baseline lesion CNV area was 0.0105 mm^2 with a standard deviation of 0.0037.

Series [4] in a line: Two chamber Ussing type permeability apparatus, transscleral rapamycin delivery. The class given is in vitro ADME, human. The conditions noted are these: human. On the procedure: (§2) Prior to testing of sclera, loss of therapeutic agent to the glass walls of the experimental apparatus was evaluated. For the evaluation of loss of drug to the experimental apparatus, the uveal and orbital chambers were exposed to a 2 μg/mL rapamycin solution in balanced salt solution.
(§3) A 7 mm disk of fresh donor human sclera was used to separate the two chambers of the Ussing permeability apparatus. The two sides of the sclera were denoted “orbital” to represent the outer surface and “uveal” to represent the internal surface. […] Thus, in order to grossly replicate a scleral depot delivery system, the hydrophobic therapeutic agent solvents were diluted to 5% concentration in balanced salt solution (BSS) with dissolved rapamycin to form a roughly 100 μg per ml orbital chamber solution. In this example, the chamber on the orbital surface side contained a reservoir of 200 μl of rapamycin dissolved in 5% DMSO in BSS at an expected concentration of 100 μg per milliliter. The 500 μl uveal chamber was continually perfused at 0.0075 milliliter per minute and samples were collected by a fractionater in Eppendorf tubes every 4 hours. The experiment was run for 36 hours.
(§4) At the peak concentrations in the uveal chamber (250 ng/ml), rapamycin will fully dissolve in vitreous. Because the amount of therapeutic agent in the orbital chamber was declining, the steady state was estimated by the highest flux. […] A permeability coefficient (K) was calculated as:
(§5) [formula] ΔC represents the increase in concentration the compound in the uveal chamber (0.250 micrograms/ml) that occurs over the interval t, in seconds ([…]). V is the chamber volume (1.8 milliliter). A represents the exposed area of the tissue (0.385 cm^2). C0 is the initial concentration of the compound in the orbital chamber (92 microgram/ml). Calculated in this manner, the permeability coefficient, K, has the dimensions of cm/s. KTRANS thus expresses the rate at which a given solute traverses the tissue. (Advanced Therapeutic agent Delivery Reviews 52 (2001) 37-48 by Dale Geroski and Hank Edelhauser, which is incorporated herein by reference in its entirety). For this experiment KTRANS was roughly 8.82×10^−6 cm/sec, which was on the order of predictions based on MW. Comparatively, when evaluating the KTRANS of dexamethasone, which is smaller than rapamycin, and adjusting for a lower solubility, the figures for rapamycin are also in the appropriate predicted ranges. It is expected that as the external concentration of rapamycin is raised, the flux will increase. Under the ex-vivo conditions of this example, rapamycin can be delivered in the single digit micrograms per day to the vitreous. Such rates are consistent with therapeutic local tissue levels and support that rapamycin is a viable therapeutic agent for transscleral delivery to the posterior segment for vitreoretinal disease. Transscleral Rapamycin Delivery—Methanol Solution
(§6) The above procedure was followed with the exception that rapamycin was dissolved in 5% methanol in BSS. The time profile of the concentration of rapamycin in the uveal chamber is depicted in FIG. 3 (circles). The peak concentration in the uveal chamber was 271 ng/ml at t=12 to 16 hours. The total amount of rapamycin accumulated on the uveal side of the sclera is depicted as function of time in FIG. 4 (squares). The total rapamycin recovered from the uveal chamber was 3.44 micrograms in 36 hours.

The test system of series [5] is human sclera. The description is as above. It is filed as in vitro ADME. The settings on record: for rapamycin held by the sclera at the conclusion of the experiment: 36 hours; for total rapamycin recovered from the uveal chamber: in 36 hours. Here is the method: as §2, §3, §4, §5, §6
Series [6] can be described thus: Solubility of rapamycin. The class given is physicochemical.

As for `CO[C@H]1C[C@@H]2CC[C@@H](C)[C@@](O)(O2)C(=O)C(=O)N2CCCC[C@H]2C(=O)O[C@H]([C@H](C)C[C@@H]2CC[C@@H](O)[C@H](OC)C2)CC(=O)[C@H](C)/C=C(\C)[C@@H](O)[C@@H](OC)C(=O)[C@H](C)C[C@H](C)/C=C/C=C/C=C/1C` [rapamycin], the “mean CNV area, rapamycin treated eyes” value in series [1] amounted to 0.00381 mm^2. In series [2] (periocular 5 μg per day), the rapamycin blood levels is listed as 5.57 nanograms per milligram blood. Besides, the “retinal tissue levels of rapamycin, treated eyes” value in series [2] (periocular 5 μg per day, HPLC/MS) was 25 picograms per milligram tissue. The “retinal tissue levels of rapamycin, fellow control eyes” value in series [2] (untreated fellow eye of animals given periocular 5 μg per day in the other eye) was 7 picograms per milligram tissue. Further, in series [3], the “CNV area, treated eyes” value stood at 0.00458 mm^2. Besides, the Papp at 36 h, 92 μg/mL in series [4] (5% DMSO in BSS, read-out: permeability coefficient KTRANS) was roughly 8.82 ×10⁻⁶ cm/s. Besides, the Papp at 36 h, 100 μg/mL in series [4] (5% methanol in BSS, read-out: permeability coefficient KTRANS) amounted to 9.56 ×10⁻⁶ cm/s. Besides, the Papp at 36 h, 100 μg/mL in series [4] (ex-vivo human scleral tissue, order of magnitude, summary of Example 3, read-out: permeability of human sclera to rapamycin) was roughly 10 ×10⁻⁶ cm/s. Also, in series [5] (5% DMSO in BSS), the “time of peak concentration in the uveal chamber” value lay within 8 to 12 h, the “rapamycin held by the sclera at the conclusion of the experiment” value turned out to be 0.57 micrograms and the “total rapamycin recovered from the uveal chamber” value was determined as 2.67 micrograms. For the same compound, the “peak concentration in the uveal chamber” value in series [5] (5% DMSO in BSS, about 100 μg per ml orbital chamber) is 250 ng/mL. Further, the highest flux in series [5] (5% DMSO in BSS, taken as estimate of steady state) is 9.35 micrograms per square centimeter per day. Also, in series [5] (5% methanol in BSS), the “peak concentration in the uveal chamber” value was 271 ng/mL, the “time of peak concentration in the uveal chamber” value lay within 12 to 16 h, the “rapamycin held by the sclera at the conclusion of the experiment” value stood at 0.41 micrograms and the “total rapamycin recovered from the uveal chamber” value came to 3.44 micrograms. Besides, the “solubility in aqueous solutions” value in series [6] is reported as “poorly soluble”.

These data come from patent US7585517B2, “Transscleral delivery” (Macusight, Inc., priority 2003, dated 2009).
